Data reported in publication PMC7239824, “Impact of intracellular hemin on N-type inactivation of voltage-gated K^+ channels” (Pflugers Archiv, 2020).

Target: T1, hKvβ1.1 1-140 (Homo sapiens, UniProt Q14722)
T1 construct: gene KCNAB1; E. coli BL21(DE3) pRIL; NHS-dye labelled
T1 sequence (Q14722 1-140 isoform Q14722-2): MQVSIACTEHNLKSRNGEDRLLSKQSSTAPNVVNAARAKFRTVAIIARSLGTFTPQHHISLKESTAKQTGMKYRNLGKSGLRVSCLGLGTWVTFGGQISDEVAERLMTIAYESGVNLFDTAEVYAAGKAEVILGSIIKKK
Test: microscale thermophoresis
Settings: read-out: binding constant

Kd: 98 ± 14 nM
Compound: C=CC1=C(C)C2=Cc3c(C=C)c(C)c4[n]3[Fe]([Cl])[n]3c(c(C)c(CCC(=O)O)c3=CC3=NC(=C4)C(C)=C3CCC(=O)O)=CC1=N2 [hemin]
